{"source": "patent US11304968B2", "about": "“Pharmaceutical compositions comprising a hydroxyethylquercetin glucuronide” (JANSSEN PHARMACEUTICA NV, priority 2018, dated 2022)", "origin": "cited, not measured here", "key": {"[1]": {"tested_on": "cortisol response", "conditions": "in vitro"}, "[2]": {"conditions": "rat"}, "[3]": {"conditions": "humans, oral; baicalin 616 mg with baicalein 52.5 mg; wogonoside 117.2 mg with wogonin 32 mg"}, "[4]": {"assay": "not given", "remark": "listed apart in the source"}, "[5]": {"tested_on": "anxiety and depressive behaviors in the offspring", "conditions": "pregnant rats fed a high fat diet"}, "[6]": {"tested_on": "cortisol levels", "conditions": "depressed, stressed rats"}, "[7]": {"conditions": "human, in vivo, po"}, "[8]": {"conditions": "rat, in vivo, po"}}, "data": [{"compound": "C[C@@H]1O[C@@H](OC[C@H]2O[C@@H](Oc3c(-c4ccc(O)c(O)c4)oc4cc(OCCO)cc(O)c4c3=O)[C@H](O)[C@@H](O)[C@@H]2O)[C@H](O)[C@H](O)[C@H]1O", "note": "[MonoHER, 7-monohydroxyethylrutoside]", "values": [{"measurement": "effect on cortisol response and cortisol resistance", "setting": "[1]", "value": "protects the proper cortisol response and decreases cortisol resistance"}]}, {"compound": "O=C(O)[C@H]1O[C@@H](Oc2cc3oc(-c4ccccc4)cc(=O)c3c(O)c2O)[C@H](O)[C@@H](O)[C@@H]1O", "note": "[baicalin]", "values": [{"measurement": "site of absorption", "setting": "[2]", "value": "preferentially absorbs in the rat stomach"}, {"measurement": "solubility in water", "value": "poorly soluble in water"}, {"measurement": "urinary COV of metabolites", "setting": "[3]", "value": "about 10%"}]}, {"compound": "O=C(O)[C@H]1O[C@@H](Oc2cc3oc(-c4ccc(O)cc4)cc(=O)c3c(O)c2O)[C@H](O)[C@@H](O)[C@@H]1O", "note": "[scutellarin]", "values": [{"measurement": "solubility in water", "value": "poorly soluble in water"}, {"measurement": "pKa", "setting": "[4]", "value": "about 2.7"}]}, {"compound": "C[C@@H]1O[C@@H](OC[C@H]2O[C@@H](Oc3c(-c4ccc(OCCO)c(OCCO)c4)oc4cc(OCCO)cc(O)c4c3=O)[C@H](O)[C@@H](O)[C@@H]2O)[C@H](O)[C@H](O)[C@H]1O", "note": "[troxerutin, 7,3′,4′-trihydroxyethylrutoside]", "values": [{"measurement": "anxiety and depressive behaviors in the offspring", "setting": "[5]", "value": "reduced anxiety and depressive behaviors in the offspring"}, {"measurement": "effect on cortisol levels", "setting": "[6]", "value": "decreased cortisol levels"}]}, {"compound": "mono-3′-O-hydroxyethyl quercetin-glucuronide [Mono-3′-O-HEQG]", "values": [{"measurement": "volunteers in whom the metabolite was detectable", "setting": "[7]", "value": "13 of the 16"}, {"measurement": "detectability as metabolite", "setting": "[8]", "value": "not detectable"}]}]}
